Results from article PMC10857906, “PROTAC-mediated NR4A1 degradation as a novel strategy for cancer immunotherapy” (The Journal of Experimental Medicine, 2024).

Key:
splenic B cells = test: B cell proliferation assay (splenic B cells, B16F10 lysate, Cell Trace Violet); assay type: cell-based, mouse; details: WT B cells with B16F10 lysates, 250 or 500 nM, 24 h
Description: B cells were isolated from the spleen by using EasySep Mouse B cell Isolation Kit (19854; STEMCELL) and cultured in RPMI supplemented with […] non-essential amino acids (11140050; Thermo Fisher Scientific), 1 mM sodium pyruvate (11360070; Thermo Fisher Scientific), 1 mM Glutamax, 10 mM HEPES (15630080; Thermo Fisher Scientific), 0.1% 2-mercaptoethanol (21985023; Thermo Fisher Scientific), 10% FBS (F2442; Sigma-Aldrich) and 100 U/ml penicillin, and 100 µg/ml streptomycin (P4333; Sigma-Aldrich). B cells were stained with 5 nM CellTrace Violet Cell (C34557; Thermo Fisher Scientific) for 8 min in a 37°C water bath. B cells were plated at a concentration of 5 × 10^5 cells per 200 μl in round-bottom 96-well plates treated with 0.1% B16F10 melanoma cell lysis or 10 µg/ml goat anti-mouse IgM F(ab′)2 (115-006-020; Jackson ImmunoResearch). B cells were treated with NR-V04 or DMSO for 24 h and collected for flow cytometry analysis.
Mouse tumors were excised and ∼200 mg of tumor tissue was enzymatically and mechanically digested using the mouse Tumor Dissociation Kit (Miltenyi Biotec) to obtain a single-cell suspension. […] Flow cytometry was performed on a three laser Cytek Aurora Cytometer (Cytek Biosciences) and analyzed using FlowJo software (BD Biosciences). […]

NR4A1 = biological target: T1, NR4A1 (Homo sapiens, UniProt P22736); test: NR4A1 degradation in A375 human melanoma cells (immunoblotting); assay type: cell-based; details: 16 h treatment, read-out: 50% degradation concentration (DC50) of NR4A1
T1 construct: NR-V04 effectively promoted the degradation of NR4A1 in two human melanoma cell lines within 16 h; endogenous in cells; host or cells: CHL-1, A375, WM164, M229 human melanoma cells
Description: Human melanoma cell lines: A375 and CHL-1 (gifts from Dr. D. Zhou, the University of Texas Health Science Center, San Antonio, TX, USA) were cultured in Dulbecco’s Modified Eagles’ Medium (DMEM, D5796; Sigma-Aldrich), WM164 and M229 (gifts from Dr. K.S.M. Smalley’s lab) were cultured in RPMI-1640 (R8758; Sigma-Aldrich). Mouse melanoma cell lines: B16F10 (CRL-6475, ATCC) was cultured in DMEM, SW1 and SM1 (gift from Dr. K.S.M. Smalley, Moffitt Cancer Center, Tampa, FL, USA) were cultured in RPMI. Human epithelial kidney cell lines: HEK293T (293T, CRL-3216; ATCC) and Vhl-KO-293T (gift from Dr. D. Zhou, the University of Texas Health Science Center, San Antonio, TX, USA) were cultured in DMEM. Mouse colon cancer cell lines: MC38 (ENH204-FP; Kerafast Inc.) was cultured in DMEM supplemented with 1 mM glutamine, […] non-essential amino acids (11140050; Thermo Fisher Scientific), 1 mM sodium pyruvate (11360070; Thermo Fisher Scientific), and 10 mM HEPES (15630080; Thermo Fisher Scientific). […]
Samples were lysed using radioimmunoprecipitation assay buffer (RIPA) lysis buffer (150 mM NaCl, 5 mM EDTA, 50 mM Tris pH 8.0, 0.5% sodium deoxycholate, 1% NP-40, 0.1% SDS) supplemented with 1 mM dithiothreitol and protease inhibitors. The lysates were separated by SDS-PAGE and analyzed using standard western blotting procedures ([Khan et al., 2019]). […]

T1 sequence (P22736 whole entry): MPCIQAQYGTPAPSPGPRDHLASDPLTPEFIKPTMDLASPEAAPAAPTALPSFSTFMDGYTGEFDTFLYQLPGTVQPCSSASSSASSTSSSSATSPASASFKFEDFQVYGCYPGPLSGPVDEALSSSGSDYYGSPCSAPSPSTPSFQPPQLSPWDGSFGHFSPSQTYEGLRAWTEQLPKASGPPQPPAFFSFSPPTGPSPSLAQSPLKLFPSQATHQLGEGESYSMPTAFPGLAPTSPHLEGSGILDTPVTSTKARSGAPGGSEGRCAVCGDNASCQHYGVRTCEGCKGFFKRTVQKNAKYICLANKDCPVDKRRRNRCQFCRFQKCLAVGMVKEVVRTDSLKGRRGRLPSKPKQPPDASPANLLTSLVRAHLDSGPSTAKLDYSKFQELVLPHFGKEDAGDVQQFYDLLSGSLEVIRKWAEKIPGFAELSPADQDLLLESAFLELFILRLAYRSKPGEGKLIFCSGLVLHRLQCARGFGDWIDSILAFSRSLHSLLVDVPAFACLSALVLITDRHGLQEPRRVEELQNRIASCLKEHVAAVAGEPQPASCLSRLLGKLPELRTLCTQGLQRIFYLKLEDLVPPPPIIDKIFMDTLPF

SMILES: CC1=C(O)C(=O)C=C2C1=CC=C1[C@@]2(C)CC[C@@]2(C)[C@@H]3C[C@](C)(C(=O)NCCOCCOCCOCCOCC(=O)N[C@H](C(=O)N4C[C@H](O)C[C@H]4C(=O)N[C@@H](C)c4ccc(-c5scnc5C)cc4)C(C)(C)C)CC[C@]3(C)CC[C@]12C [NR-V04]
- B cell proliferation (splenic B cells): significantly increased B cell proliferation
- NR4A1 in B cells (splenic B cells): led to NR4A1 degradation in B cells
- DC50 (NR4A1): 519 nM
